Results taken from patent publication US20030083334A1, “Synergistic insecticidal formulations of pyridaben and strobilurins” (priority 2000, published 2003).

Columns and labels:
[1] = system: cotton aphid; experiment: Greenhouse trial, number of apterous aphids (AA) per cotton plant; format: in vivo, Aphis gossypil; conditions: for # of AA 6 DAT / # of AA 16 DAT: apterous aphids per plant; for # of AA 6 DAT: untreated 290; for # of AA 16 DAT: untreated 750
Experimental: (§1) A greenhouse trial was conducted to determine the insecticidal effects against the cotton aphid (Aphis gossypil). In this regard, cotton plants infected with the cotton aphid were sprayed in a growth chamber and placed in a greenhouse. Counts were made on apterous forms at 6 and 16 days after treatment (DAT), with the data appearing in Tables 1A and 1 B below.
Example 1 was repeated and the number of apterous aphids (AA) per plant at 6 and 16 DAT were noted. The data appear in Table 4 below versus a conventional insecticide, imidacloprid (Provado® insecticide commercially available from Bayer Corp.).

[2] = system: twospotted spider mites (Tetranychus urticae); experiment: Greenhouse trial, dracaena infected with twospotted spider mites; % control; format: in vivo
Experimental: as §1
Example 1 was repeated except using dracaena infected with twospotted spider mites (Tetranychus urticae) and using the application rates noted.

[3] = system: green peach aphids (Myzus persicae); experiment: Greenhouse trial, celosia infected with green peach aphids; % control; format: in vivo
Experimental: as §1
Example 1 was repeated except using celosia infected with green peach aphids (Myzus persicae) and using the application rates noted.

[4] = system: cotton aphid (Aphis gossypil); experiment: Greenhouse trial, cotton plants infected with cotton aphid, sprayed; % control; format: in vivo
Experimental: as §1

Row | Compound | # of AA 6 DAT ([1]; 5 ppm ai) | # of AA 16 DAT ([1]; 5 ppm ai) | # of AA 6 DAT ([1]; 10 ppm ai) | # of AA 16 DAT ([1]; 10 ppm ai) | # of AA 6 DAT ([1]; 50 ppm ai) | # of AA 16 DAT ([1]; 50 ppm ai) | # of AA 6 DAT ([1]; 100 ppm ai) | # of AA 16 DAT ([1]; 100 ppm ai) | % Cotton Aphid Control 6 DAT ([4]; 5 ppm) [%] | % Cotton Aphid Control 16 DAT ([4]; 5 ppm) [%] | % Cotton Aphid Control 6 DAT ([4]; 10 ppm) [%] | % Cotton Aphid Control 16 DAT ([4]; 10 ppm) [%] | % Cotton Aphid Control 6 DAT ([4]; 50 ppm) [%] | % Cotton Aphid Control 16 DAT ([4]; 50 ppm) [%] | % Cotton Aphid Control 6 DAT ([4]; 100 ppm) [%] | % Cotton Aphid Control 16 DAT ([4]; 100 ppm) [%] | further results
1 | CC(C)(C)c1ccc(CSc2cnn(C(C)(C)C)c(=O)c2Cl)cc1 [BAS 300, 2-tert-butyl-5-(4-tert-butylbenzylthio)-4-chloropyridazin-3(2H)-one] | 76 | 233 | 72 | 222 | 16 | 15 | 7 | 7 | 73.8 | 68.9 | 75.2 | 70.4 | 94.5 | 98 | 97.6 | 99.1 | activity against the cotton aphid ([1]; 6 DAT, application rate of 5 ppm ai): moderate activity; # of AA 6 DAT ([1]; 200 ppm ai): 1; # of AA 16 DAT ([1]; 200 ppm ai): 4; # of AA 6 DAT ([1]; 300 ppm ai): 2; # of AA 16 DAT ([1]; 300 ppm ai): 2; intrinsic activity against the cotton aphid ([1]; in vivo): excellent intrinsic activity; % Twospotted Spider Mite Control ([2]; 2 oz formulated product/100 gal, 7 DAT): 80%; % Twospotted Spider Mite Control ([2]; 2 oz formulated product/100 gal, 14 DAT): 91%; % Green Peach Aphid Control ([3]; 0.9 lb ai/100 gal, 2 DAT): 0%; % Green Peach Aphid Control ([3]; 0.9 lb ai/100 gal, 4 DAT): 47%; % Green Peach Aphid Control ([3]; 0.9 lb ai/100 gal, 6 DAT): 77%; % Green Peach Aphid Control ([3]; 0.9 lb ai/100 gal, 10 DAT): 97%; % Green Peach Aphid Control ([3]; 0.9 lb ai/100 gal, 14 DAT): 95%
2 | CO/N=C(/C(=O)OC)c1ccccc1COc1ccccc1C [BAS 490, methyl-(E)-2-methoxyimino-2-[2-o-tolyoxy-methyl)phenyl] acetate] | 258 | 650 | 290 | 643 | 298 | 717 | 316 | 550 | 11 | 13.3 | 0 | 14.3 | 0 | 4.4 | 0 | 26.6 | effectiveness alone against the cotton aphid ([1]; alone, at all rates): ineffective alone; % Twospotted Spider Mite Control ([2]; 3.2 oz formulated product/100 gal, 7 DAT): 16%; % Twospotted Spider Mite Control ([2]; 3.2 oz formulated product/100 gal, 14 DAT): 28%; % Green Peach Aphid Control ([3]; 0.1 lb ai/100 gal, 2 DAT): 0%; % Green Peach Aphid Control ([3]; 0.1 lb ai/100 gal, 4 DAT): 14%; % Green Peach Aphid Control ([3]; 0.1 lb ai/100 gal, 6 DAT): 5%; % Green Peach Aphid Control ([3]; 0.1 lb ai/100 gal, 10 DAT): 10%; % Green Peach Aphid Control ([3]; 0.1 lb ai/100 gal, 14 DAT): 5%
